Source: patent publication US20240025862A1, “SUBSTITUTED N-PHENYLURACILS AND SALTS THEREOF, AND USE THEREOF AS HERBICIDAL ACTIVE SUBSTANCES” (Bayer Aktiengesellschaft, priority 2020, published 2024)

What was measured:
Format in all cases: in vivo
Oryza sativa (ORYSA) = assay: Post-emergence crop plant compatibility, greenhouse pot test (also comparative test C); conditions: for Post-emergence action against ORYSA (crop plant compatibility): vs untreated controls
In short: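 Rice and other crops sprayed post-emergence at one-leaf stage (2–3 weeks after sowing) with WP or EC formulations plus 0.5% additive at 600 l/ha water. Visual rating about 3 weeks later versus untreated controls (100% = dead, 0% = like control); suffixes a–c denote different doses.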

Setaria viridis (SETVI) = assay: Post-emergence herbicidal action, greenhouse pot test (also comparative test C); conditions: for Post-emergence action against SETVI: 20 g/ha
In short: (§1)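 Green parts of one-leaf-stage plants are sprayed at 600 l/ha with formulated compound plus 0.5% additive, then kept under optimum greenhouse conditions for about 3 weeks. Damage is scored visually, where 100% means dead plants and 0% means no difference from controls.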

[1] = tested on: Alopecurus myosuroides (ALOMY); assay: as above; conditions: rated visually after about 3 weeks vs untreated controls, 100% = plants have died
In short: as §1

[2] = tested on: Echinochloa crus-galli (ECHCG); assay: as above
In short: as §1

[3] = tested on: Matricaria inodora (MATIN); assay: as above
In short: as §1

[4] = tested on: Polygonum convolvulus (POLCO); assay: Post-emergence herbicidal action, greenhouse pot test
In short: (§2)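 Greenhouse-grown weeds in sandy loam were sprayed post-emergence at the one-leaf stage, 2–3 weeks after sowing. Compounds were formulated as WP or EC in water with 0.5% additive at 600 l/ha, at rates of 20 g/ha or less. Visual rating after about 3 weeks used a scale from 0% (like untreated control) to 100% (plants dead).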

[5] = tested on: Abutilon theophrasti (ABUTH); assay: as above; conditions: rated visually after about 3 weeks vs untreated controls, 100% = plants have died
In short: as §2

Lolium rigidum (LOLRI) = assay: as above; conditions: dosage 20 g/ha
In short: as §2

[6] = tested on: Amaranthus retroflexus (AMARE); assay: as above; conditions: rated visually after about 3 weeks vs untreated controls, 100% = plants have died
In short: as §2

Viola tricolor (VIOTR) = assay: as above
In short: as §2

[7] = tested on: Pharbitis purpurea (PHBPU); assay: as above
In short: as §2

Avena fatua (AVEFA) = assay: as above; conditions: rated visually after about 3 weeks vs untreated controls, 100% = plants have died
In short: as §2

Veronica persica (VERPE) = assay: as above
In short: as §2

Zea mays (ZEAMX) = assay: Post-emergence crop plant compatibility, greenhouse pot test; conditions: 1.25 g/ha, vs untreated controls
In short: (§3)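 Percent crop injury was judged by eye roughly three weeks after treatment, relative to untreated plants, where 100% meant death. Application was a post-emergence spray at the one-leaf stage, 600 l/ha water volume with 0.5% additive; letters a, b, c denote differing dose rates.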

[8] = tested on: Triticum aestivum (TRZAS); assay: as above; conditions: vs untreated controls
In short: as §3

| Post-emergence action against ORYSA (crop plant compatibility) (Oryza sativa (ORYSA); 1.25 g/ha) | Post-emergence action against ORYSA (crop plant compatibility) (Oryza sativa (ORYSA); 5 g/ha) | SMILES | Post-emergence action against SETVI (Setaria viridis (SETVI)) | Post-emergence action against SETVI in % (Setaria viridis (SETVI); dosage 1.25 g/ha) | Post-emergence action against SETVI in % (Setaria viridis (SETVI); dosage 5 g/ha) | Post-emergence action at 1.25 g/ha against ALOMY in % [1] | Post-emergence action at 5 g/ha against ALOMY in % [1] | Post-emergence action at 20 g/ha against ALOMY in % [1] | Post-emergence action against ECHCG in % ([2]; dosage 5 g/ha) | Post-emergence action against ECHCG in % ([2]; dosage 20 g/ha) | Post-emergence action against MATIN in % ([3]; dosage 20 g/ha) | Post-emergence action against POLCO in % ([4]; dosage 5 g/ha) | Post-emergence action against POLCO in % ([4]; dosage 20 g/ha) | Post-emergence action at 1.25 g/ha against ABUTH in % [5] | Post-emergence action at 5 g/ha against ABUTH in % [5] | Post-emergence action at 20 g/ha against ABUTH in % [5] | Post-emergence action against LOLRI in % (Lolium rigidum (LOLRI)) | Post-emergence action at 1.25 g/ha against AMARE in % [6] | Post-emergence action at 5 g/ha against AMARE in % [6] | Post-emergence action at 20 g/ha against AMARE in % [6] | further results |
| --- | --- | --- | --- | --- | --- | --- | --- | --- | --- | --- | --- | --- | --- | --- | --- | --- | --- | --- | --- | --- | --- |
| 0% | 0% | CCOCCOC(=O)COc1ccccc1Oc1cc(-n2c(=O)cc(C(F)(F)F)n(C)c2=O)c(F)cc1Br [I.8-2] | 100% | 100% | 100% | 80% | 100% | 100% | 100% | 100% | 100% | 100% | 100% | 100% | 100% | 100% | 90% | 100% | 100% | 100% | Post-emergence action against MATIN in % ([3]; dosage 1.25 g/ha): 100%; Post-emergence action against MATIN in % ([3]; dosage 5 g/ha): 100%; Post-emergence action against VIOTR (Viola tricolor (VIOTR); 1.25 g/ha): 100%; Post-emergence action against VIOTR (Viola tricolor (VIOTR); 5 g/ha): 100%; Post-emergence action against VIOTR (Viola tricolor (VIOTR); 20 g/ha): 100%; Post-emergence action against PHBPU in % ([7]; dosage 1.25 g/ha): 100%; Post-emergence action against PHBPU in % ([7]; dosage 5 g/ha): 100%; Post-emergence action against PHBPU in % ([7]; dosage 20 g/ha): 100%; Post-emergence action at 20 g/ha against AVEFA in % (Avena fatua (AVEFA)): 100%; Post-emergence action against VERPE (Veronica persica (VERPE); 1.25 g/ha): 100%; Post-emergence action against VERPE (Veronica persica (VERPE); 5 g/ha): 100%; Post-emergence action against VERPE (Veronica persica (VERPE); 20 g/ha): 100%; Post-emergence action against ZEAMX (crop plant compatibility) (Zea mays (ZEAMX)): 20% |
| 0% | 20% | Cn1c(C(F)(F)F)cc(=O)n(-c2cc(Oc3ccccc3OCC(=O)OCc3cccnn3)c(Br)cc2F)c1=O [I.8-291] | 100% | 100% | 100% | 80% | 90% | 100% | 100% | 100% | 100% | 100% | 100% | 100% | 100% | 100% | 80% | 100% | 100% | 100% | Post-emergence action at 1.25 g/ha against ECHCG in % ([2]; 1.25 g/ha, rated visually after about 3 weeks vs untreated controls, 100% = plants have died): 100%; Post-emergence action against VIOTR (Viola tricolor (VIOTR); 1.25 g/ha): 100%; Post-emergence action against VIOTR (Viola tricolor (VIOTR); 5 g/ha): 100%; Post-emergence action against VIOTR (Viola tricolor (VIOTR); 20 g/ha): 100%; Post-emergence action against PHBPU in % ([7]; dosage 1.25 g/ha): 100%; Post-emergence action against PHBPU in % ([7]; dosage 5 g/ha): 100%; Post-emergence action against PHBPU in % ([7]; dosage 20 g/ha): 100%; Post-emergence action at 20 g/ha against AVEFA in % (Avena fatua (AVEFA)): 90%; Post-emergence action against VERPE (Veronica persica (VERPE); 1.25 g/ha): 100%; Post-emergence action against VERPE (Veronica persica (VERPE); 5 g/ha): 100%; Post-emergence action against VERPE (Veronica persica (VERPE); 20 g/ha): 100%; Post-emergence action against TRZAS (crop plant compatibility) ([8]; 1.25 g/ha): 10%; Post-emergence action against TRZAS (crop plant compatibility) ([8]; 5 g/ha): 20% |
| 0% | 0% | Cn1c(C(F)(F)F)cc(=O)n(-c2cc(Oc3ccccc3OCC(=O)OCc3cccnn3)c(C#N)cc2F)c1=O [I.9-291] | 100% | 100% | 100% | 80% | 90% | 100% | 90% | 100% | 100% | 90% | 100% | 100% | 100% | 100% | 90% | 100% | 100% | 100% | Post-emergence action against ORYSA in % (Oryza sativa (ORYSA); 20 g/ha, crop plant compatibility): 20%; Post-emergence action against MATIN in % ([3]; dosage 5 g/ha): 80%; Post-emergence action against POLCO in % ([4]; dosage 1.25 g/ha): 80%; Post-emergence action against VIOTR (Viola tricolor (VIOTR); 1.25 g/ha): 100%; Post-emergence action against VIOTR (Viola tricolor (VIOTR); 5 g/ha): 100%; Post-emergence action against VIOTR (Viola tricolor (VIOTR); 20 g/ha): 100%; Post-emergence action against PHBPU in % ([7]; dosage 1.25 g/ha): 100%; Post-emergence action against PHBPU in % ([7]; dosage 5 g/ha): 100%; Post-emergence action against PHBPU in % ([7]; dosage 20 g/ha): 100%; Post-emergence action at 5 g/ha against AVEFA in % (Avena fatua (AVEFA); 5 g/ha): 80%; Post-emergence action at 20 g/ha against AVEFA in % (Avena fatua (AVEFA)): 80%; Post-emergence action against VERPE (Veronica persica (VERPE); 1.25 g/ha): 100%; Post-emergence action against VERPE (Veronica persica (VERPE); 5 g/ha): 100%; Post-emergence action against VERPE (Veronica persica (VERPE); 20 g/ha): 100%; Post-emergence action against TRZAS (crop plant compatibility) ([8]; 1.25 g/ha): 20%; Post-emergence action against TRZAS (crop plant compatibility) ([8]; 5 g/ha): 20% |
